Source: ChEMBL document CHEMBL1124276, “Evaluation of the importance of hydrophobic interactions in drug binding to dihydrofolate reductase” (J Med Chem, 1988)

Tests used:
[1] = target: T1, Dihydrofolate reductase (Escherichia coli, UniProt P0ABQ4); test: Thermodynamic Dissociation Constant for compound-Val31-dihydrofolate reductase (DHFR) complex at pH 8.5
[2] = target: T1, Dihydrofolate reductase; test: Thermodynamic Dissociation Constant for compound-Tyr31-dihydrofolate reductase (DHFR) complex at pH 8.5
[3] = target: T1, Dihydrofolate reductase; test: Thermodynamic Dissociation Constant for compound-Phe31-dihydrofolate reductase (DHFR) complex at pH 8.5
[4] = target: T1, Dihydrofolate reductase; test: Thermodynamic Dissociation Constant for compound-Val31-dihydrofolate reductase (DHFR) complex at pH 7
[5] = target: T1, Dihydrofolate reductase; test: Thermodynamic Dissociation Constant for compound-Phe31-dihydrofolate reductase (DHFR) complex at pH 7
[6] = target: T1, Dihydrofolate reductase; test: Thermodynamic Dissociation Constant for compound-Tyr31-dihydrofolate reductase (DHFR) complex at pH 7
[7] = target: T2, Dihydrofolate reductase (Escherichia coli) (UniProt P0ABQ4)
T2 sequence (whole entry): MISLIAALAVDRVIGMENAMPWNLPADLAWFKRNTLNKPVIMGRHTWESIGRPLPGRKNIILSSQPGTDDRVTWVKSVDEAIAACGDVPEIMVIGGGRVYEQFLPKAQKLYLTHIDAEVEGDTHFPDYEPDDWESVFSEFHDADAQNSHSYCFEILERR
Description: Dissociation constant(Koff) at Phe-31 of dihydrofolate reductase (DHFR)

[8] = target: T1, Dihydrofolate reductase; test: Inhibition constant for Val31-dihydrofolate reductase (DHFR)-NADPH-Compound complex
[9] = target: T1, Dihydrofolate reductase; test: Thermodynamic Dissociation Constant for compound-Phe31-dihydrofolate reductase (DHFR) complex at pH 6
[10] = target: T1, Dihydrofolate reductase; test: Thermodynamic Dissociation Constant for compound-Tyr31-dihydrofolate reductase (DHFR) complex at pH 6
[11] = target: T2, Dihydrofolate reductase (Escherichia coli); remark: listed apart in the source
Description: Dissociation constant at(Koff) Tyr-31 of dihydrofolate reductase (DHFR)

[12] = target: T2, Dihydrofolate reductase (Escherichia coli); remark: listed apart in the source
Description: Constant, Kr at Phe-31 of dihydrofolate reductase (DHFR)

[13] = target: T2, Dihydrofolate reductase (Escherichia coli); remark: listed apart in the source
Description: Constant at Tyr-31(Kr) of dihydrofolate reductase (DHFR)

[14] = target: T2, Dihydrofolate reductase (Escherichia coli); remark: listed apart in the source
Description: Association constant(Kon) at Tyr-31 of dihydrofolate reductase (DHFR)

[15] = target: T3, Dihydrofolate reductase (Escherichia coli, UniProt P0ABQ4); test: Inhibition constant for Phe31-dihydrofolate reductase (DHFR)-NADPH-Compound complex
T3 sequence (P0ABQ4 whole entry): T2 sequence (whole entry)

[16] = target: T1, Dihydrofolate reductase; test: Inhibition constant for Tyr31-dihydrofolate reductase (DHFR)-NADPH-Compound complex

| SMILES | Kd [1] | Kd [2] | Kd [3] | Kd [4] | Kd [5] | Kd [6] | k off [7] | Ki [8] | Kd [9] | Kd [10] | k off [11] | Kr [12] | Kr [13] | k on [14] | Ki [15] | Ki [16] |
| --- | --- | --- | --- | --- | --- | --- | --- | --- | --- | --- | --- | --- | --- | --- | --- | --- |
| NC(=O)c1ccc[n+]([C@H]2O[C@@H](COP(=O)([O-])OP(=O)(O)OC[C@H]3O[C@@H](n4cnc5c(N)ncnc54)[C@H](OP(=O)(O)O)[C@@H]3O)[C@H](O)[C@@H]2O)c1 [NICOTINAMIDE ADENINE DINUCLEOTIDE PHOSPHATE] | 300 nM | 400 nM | 490 nM | 220 nM | 380 nM | 340 nM |  |  |  |  |  |  |  |  |  |  |
| Nc1nc2ncc(CNc3ccc(C(=O)N[C@@H](CCC(=O)O)C(=O)O)cc3)nc2c(=O)[nH]1 [FOLIC ACID] |  |  |  | 4800 nM | 810 nM | 4400 nM |  |  |  |  |  |  |  |  |  |  |
| Cc1nc2nc(N)nc(N)c2nc1C |  |  |  |  |  |  | 35 s⁻¹ | 9100 nM | 1600 nM | 3900 nM | 25 s⁻¹ | 24 s⁻¹ | 25 s⁻¹ | 6.8e+06 M⁻¹ s⁻¹ | 44 nM | 57 nM |
